# According to PMC12040169 (PLOS Biology, 2025):
# Experiment: in vitro
# Conditions: human, hela cells, % viability
row,Compound,"viability at 28.5 h, 10 µM"
1,CCOC(=O)CSc1nc(-c2ccc3c(c2)OCO3)ccc1C#N [CBK270262],87.6%
2,COc1ccc(-c2noc(CN(C(C)=O)C3CCCCC3)n2)cc1 [CBK270264],111%
3,Cc1ccc2c(N)c(C(=O)c3ccc4c(c3)OCCO4)sc2n1 [CBK270265],84.2%
4,CCCc1cc(O)n(-c2nc3ccccc3[nH]2)n1 [CBK270269],82.7%
5,CC(C(=O)N1CCOCC1)N(c1cc(Cl)ccc1Cl)S(C)(=O)=O (centres unmarked) [CBK270270],88.8%
6,COc1cccc(CNCc2ccco2)c1OCc1ccccc1F [CBK270271C],92.6%
7,O=C(Nc1ccccc1C(=O)N1CCOCC1)C1CCN(C(=O)c2ccco2)CC1 [CBK270272],105%
8,Cc1ccc(Cc2c(C)[nH]c3[nH]n(-c4ccccc4)c(=O)c3c2=O)cc1 [CBK270273],83.7%
9,O=C(NCCc1cccs1)C(c1ccccc1)c1ccccc1 [CBK270275],90.1%
10,O=C(O)c1ccc(CN2C(=O)COc3ccccc32)o1 [CBK270276],104%
11,CNS(=O)(=O)c1cc(C(=O)NCc2ccccc2)ccc1OC [CBK270277],94.9%
12,CC(O)CNCc1ccccc1OCc1ccccc1F (centres unmarked) [CBK270278C],93.2%
13,COc1ccc(-c2c3c(nc4sc(C#N)c(N)c24)CCCC3)cc1 [CBK270279],80%
14,COc1ccc(NC(=O)C2CC(=O)NC3=C2C(=O)CC(c2ccco2)C3)cc1 (centres unmarked) [CBK270282],90.6%
15,O=C(Nc1cccc(-c2noc(-c3ccccn3)n2)c1)c1cccs1 [CBK270283],88.9%
16,O=C1CC(c2ccccc2O)CC2=C1C=Nc1ccccc1N2 (centres unmarked) [CBK270287],97.4%
17,CCOC(=O)c1ccsc1NC(=O)C1CC=CCC1C(=O)O (centres unmarked) [CBK270291],97.5%
18,NC(=O)c1ccccc1NC(=O)CN1CCN(Cc2cccc(F)c2)CC1 [CBK270292],85.9%
19,O=C(O)C1CCCCC1C(=O)N1CCN(Cc2cccc3ccccc23)CC1 (centres unmarked) [CBK270293],91.2%
20,Cc1ccccc1CN1CCN(CC(=O)Nc2ccccc2C(N)=O)CC1 [CBK270296],94.1%
21,Cc1c(Cl)cccc1NC(=O)CSc1nccn1C [CBK270297],91.5%
22,O=C(O)COCC(=O)N1CCN(CCc2ccccc2)CC1 [CBK270298],107%
23,Cc1cccc(-c2nc(CN3CCOCC3)cs2)c1 [CBK270299],103%
24,CCCN1CCN(CC(=O)NCc2ccco2)CC1 [CBK270300],84.2%

row,Compound,"viability at 28.5 h, 10 µM"
1,COc1ccc(NC(=O)C2CCCCC2C(=O)O)c(C)c1 (centres unmarked) [CBK270301],83.9%
2,CCn1cc(S(=O)(=O)Nc2cc(C)on2)cn1 [CBK270302],84.3%
3,COc1ccc(NC(=O)CSc2nnc(C3CC3)n2C)c(OC)c1 [CBK270303],81.9%
4,CCn1cc(S(=O)(=O)NCc2ccccc2OC)cn1 [CBK270304],98.1%
5,COc1cc(NC(=O)CSc2nncn2C)c(OC)cc1Cl [CBK270307],86.4%
6,Cc1occc1-c1nnc(SCC(=O)Nc2ccccc2)n1C [CBK270308],84.9%
7,CN(C)CCNC(=O)c1cccc(Oc2ccccc2)c1 [CBK270310],83.1%
8,CCc1cc(C(=O)OC)c(NC(=O)C2C3C=CC(C3)C2C(=O)O)s1 (centres unmarked) [CBK270315],94.9%
9,Cc1sc(NC(=O)c2ccc(F)cc2Cl)c(C(=O)NCc2cccnc2)c1C [CBK270319],82.9%
10,NC(=O)c1ccccc1NC(=O)CN1CCN(Cc2cccc(Cl)c2)CC1 [CBK270320],103%
11,CCn1cc(S(=O)(=O)N2CCC3(CC2)OCCO3)cn1 [CBK270321],112%
12,Cc1nn(S(=O)(=O)c2cccc3nsnc23)c(C)c1Cl [CBK270323],92.6%
13,O=S(=O)(c1ccc(Cl)s1)N1CCN(Cc2ccc3c(c2)OCO3)CC1 [CBK270324],89.5%
14,COC(=O)c1sccc1NC(=O)c1ccc(F)cc1Cl [CBK270325],88.2%
15,CCCN1CCN(S(=O)(=O)c2ccc(C)cc2)CC1 [CBK270326],90%
16,CC(NC(=O)c1cccc(Oc2ccccc2)c1)c1ccncc1 (centres unmarked) [CBK270327],91.3%
17,CCn1cc(S(=O)(=O)N2CCN(c3cccc(C(F)(F)F)c3)CC2)cn1 [CBK270328],93.6%
18,O=C(O)C1CCCCC1C(=O)N1CCN(Cc2cccc(Cl)c2)CC1 (centres unmarked) [CBK270330],85%
19,O=C(Nc1ccc2c(c1)OCO2)N1CCN(c2ccc(F)cc2)CC1 [CBK270332],86.3%
20,O=C(NCc1ccco1)c1cccc(Oc2ccccc2)c1 [CBK270333],89.3%
21,O=C(O)C1C2C=CC(C2)C1C(=O)N1CCN(Cc2ccccc2Cl)CC1 (centres unmarked) [CBK270334],93%
22,CCN1CCN(C(=O)C2CCCCC2C(=O)O)CC1 (centres unmarked) [CBK270337],111%
23,O=C(Nc1ccc2c(c1)C(=O)NC2=O)c1ccccc1 [CBK270384],86.5%
24,Nc1nonc1-n1nnc(CN2CCCCC2)c1CN1CCCCC1 [CBK270636],82.3%

row,Compound,"viability at 28.5 h, 10 µM"
1,CC(=O)N(C)c1ccc(NC(=O)c2ccccc2C(=O)O)cc1 [CBK270693],97.9%
2,CSc1nc(-c2ccccc2)nc(N)c1C(C)=O [CBK270762],90.1%
3,CC1(C)CCCC2=C1CC(C(=O)O)C(C(=O)O)C2 (centres unmarked) [CBK272329],97.4%
4,CC(C)(C)c1cn2c3ccccc3nc2n1CCO [CBK273412],102%
5,O=C(O)c1ccc(N2C(=O)CC(N3CCC(Cc4ccccc4)CC3)C2=O)cc1 (centres unmarked) [CBK273484],93.4%
6,O=C(O)C1Nc2c(C(=O)N3CCOCC3)cccc2C2C=CCC12 (centres unmarked) [CBK275006],104%
7,O=C(CSCc1ccc(Cl)cc1Cl)Nc1ccc(O)cc1C(=O)O [CBK275322],95%
8,O=C(O)c1ccc(NC(=O)c2ccccc2F)c(NC(=O)c2ccccc2F)c1 [CBK275363],101%
9,CCOc1ccccc1NC(=O)CCCC(=O)O [CBK275986],98.9%
10,O=C(O)CCSC1CC(=O)N(c2ccc(F)cc2)C1=O (centres unmarked) [CBK276120],89.9%
11,CSCCC(NC(=O)c1ccc(C#CC(C)(C)O)cc1)C(=O)O (centres unmarked) [CBK276698],93.9%
12,COCCCNCCn1cnc2c(N)ncnc21 [CBK277059],88.9%
13,CC1CCC2(CC1)N=C(N)Nc1nc3ccccc3n12 (centres unmarked) [CBK277657],88.4%
14,Fc1ccccc1COc1cccc(CNCCN2CCOCC2)c1 [CBK278148C],102%
15,c1ccc2c(CNCCN3CCOCC3)cccc2c1 [CBK278156C],90.9%
16,O=C(O)CCNC1=Nc2ccccc2CCC1 [CBK278160],101%
17,CN1C2CCC1CC(OC(=O)CNC1CCCCC1)C2 (centres unmarked) [CBK278161C],93.6%
18,COc1c(Cl)cc(Cl)cc1CNCCCN1CCOCC1 [CBK278165C],88.8%
19,O=C1C=CC2=C3Oc4c(ccc5cc(O)ccc45)C(c4ccccc4C(=O)O)C3C=CC2=C1 (centres unmarked) [CBK278169N],82.8%
20,CCc1nnc(N/N=C/c2ccc(OCc3ccc(F)cc3Cl)c(OC)c2)n1N [CBK278173C],87.1%
21,CN(C)CCOC(=O)C1CCCCCN1C (centres unmarked) [CBK278175G],97.8%
22,CC(O)c1ccc(-c2ccc(CNCCCN3CCOCC3)o2)cc1 (centres unmarked) [CBK278178C],95.4%
23,COc1ccc(CNCCN2CCOCC2)c(OC)c1 [CBK278180C],90.1%
24,CCOc1c(CNCCN2CCOCC2)cccc1OC [CBK278182C],103%

row,Compound,"viability at 28.5 h, 10 µM"
1,COc1cccc(CNCCN2CCOCC2)c1O [CBK278183C],90.2%
2,O=C1C2C3C=CC(C3)C2C(=O)N1CCN1CCNCC1 (centres unmarked) [CBK278185C],92.3%
3,CN(C)CCNc1cc(-c2ccc3ccccc3c2)nc2ccccc12 [CBK278186B],67.9%
4,Cn1cccc1CNCCN1CCOCC1 [CBK278187C],89.2%
5,Clc1ccc(Cl)c(-c2ccc(CNCCCN3CCOCC3)o2)c1 [CBK278190C],89.3%
6,CN1CCN(CC(O)COc2ccccc2)CC1 (centres unmarked) [CBK278191G],83.8%
7,Fc1ccc(CNCCN2CCOCC2)cc1 [CBK278192C],105%
8,CCOC(=O)Nc1ccc2c(c1)N(C(=O)CCN(C)C)c1ccccc1CC2 [CBK278193C],89.9%
9,C(=C\c1ccccc1)/CNCCCN1CCOCC1 [CBK278195C],105%
10,O=S(=O)(O)c1ccc(N/N=C/c2cccc(/C=N/Nc3ccc(S(=O)(=O)O)cc3)c2)cc1 [CBK278204N],89%
11,Cc1cccc(C)c1OCCOCC(O)CN1CCN(C)CC1 (centres unmarked) [CBK278206C],90.4%
12,COc1ccc(Br)cc1CNCCCN1CCOCC1 [CBK278208C],102%
13,C1CN=C(SCCCSC2=NCCCN2)NC1 [CBK278210B],110%
14,CC1CCC(C(C)C)C(OCC(O)CN2CCN(C)CC2)C1 (centres unmarked) [CBK278213C],105%
15,C=CCOc1ccc(CNCCN2CCOCC2)cc1 [CBK278215C],94.3%
16,O=C(CCN1CCN(CCO)CC1)N1c2ccccc2Sc2ccc(C(F)(F)F)cc21 [CBK278218C],96.4%
17,COC(=O)Nc1ccc2c(c1)N(C(=O)CCN1CCN3CCCC3C1)c1ccccc1CC2 (centres unmarked) [CBK278220C],93.1%
18,Fc1ccccc1COc1ccccc1CNCCN1CCOCC1 [CBK278222C],96.4%
19,Cc1ccc(COC(CN2CCCCCC2)CN2CCCCCC2)cc1 [CBK278236C],100%
20,CN1CCN(CCCN2C(=O)CSC2c2cccc([N+](=O)[O-])c2)CC1 (centres unmarked) [CBK278237C],99.9%
21,CCOC(=O)c1c(C)nc2n(CCN3CCCCC3)c3ccccc3n12 [CBK278238C],91.3%

# Same assay, conditions: human, hela cells, % viability, bulk resorufin, single well
row,Compound,"viability at 28.5 h, 10 µM"
1,O=C1NC(=O)N(c2ccc(Br)cc2)C(=O)/C1=C/c1ccc(O)c(O)c1 [CBK278167],104%
2,O=C1NC(=O)N(Cc2ccccc2)C(=O)/C1=C/c1ccc(O)c(O)c1 [CBK278181],117%
